# Measurements taken from paper PMC6257630, “Photoactivatable Cell-Selective Dinuclear trans-Diazidoplatinum(IV) Anticancer Prodrugs” (Inorganic Chemistry, 2018).
# Read-outs that look alike come from different tables or passages of the source. Marks after values point to notes of the source that are not given here.
# How the values were obtained:
# [1] = system: A2780 cells; experiment: Cell cycle analysis by flow cytometry; type: cell-based, human; settings: A2780, dark; equipotent photocytotoxic IC50 concentration, 1 h exposure + 1 h dark
# Method: (§1) All flow cytometry experiments were carried out using a Becton Dickinson FACScan flow cytometer in the School of Life Sciences at Warwick University. Typically, cells were seeded in 6-well plates using 1.5 × 10^6 cells/well. Experiments included 24 h of preincubation in drug-free media at 310 K in a CO2 humidified atmosphere, followed by 1 h of drug exposure under the same conditions. After this, samples were irradiated for 1 h. For comparison, the dark plates were kept in the incubator for another 1 h. Supernatants were removed, cells were washed with PBS. Samples were then collected after trypsinization, washed with PBS, and stained in the dark with a mixture of propidium iodide and RNase. After 30 min of staining, the cell samples were washed and set up for flow cytometry reading on the red channel FL-2.
# (§2) The effect of complexes 3 and 4 in the presence of light on the progression of the cell cycle was studied. Cells were exposed to prodrugs at equipotent photocytotoxic IC50 concentrations for 1 h in the dark and then irradiated for 1 h (465 nm, 4.8 mW/cm^2, 1 h). After 24 h of recovery, cells were stained in the dark with propidium iodide in the presence of RNase and then analyzed by flow cytometry.
# [2] = system: A2780cis cells; experiment: Cell cycle analysis by flow cytometry; type: cell-based, human; settings: dark, equipotent photocytotoxic IC50 concentration, 1 h exposure + 1 h dark
# Method: as §1, §2
# [3] = system: OE19 cells; experiment: Cell cycle analysis by flow cytometry; type: cell-based, human; settings: OE19, dark; equipotent photocytotoxic IC50 concentration, 1 h exposure + 1 h dark
# Method: as §1, §2
# [4] = system: A2780 ovarian carcinoma cells; settings: for IC50: 1 h incubation, 24 h recovery
# [5] = system: cisplatin-resistant A2780cis ovarian carcinoma cells; settings: 1 h incubation, 24 h recovery
# [6] = system: OE19 esophageal adenocarcinoma cells; experiment: Photo/dark cytotoxicity (SRB assay); settings: 1 h incubation, 24 h recovery
# [7] = system: MRC5 normal fibroblast cells; experiment: Photo/dark cytotoxicity (SRB assay)
# [8] = system: A2780 ovarian carcinoma cells; experiment: cells; settings: Homo sapiens, A2780, light or radiation study
# [9] = system: cisplatin-resistant A2780cis ovarian carcinoma cells; experiment: cells; settings: Homo sapiens, light or radiation study
# [10] = system: A2780 cells; experiment: Pt accumulation in cancer cells (ICP-MS); type: cell-based, human; settings: equipotent IC50 concentration, 1 h, in the dark
# [11] = system: plasmid pUC19 linearized by EcoRI; experiment: Formation of DNA interstrand cross-links; type: biochemical; settings: irradiated with blue light 1 h + 23 h dark, 10 mM NaClO4, 310 K; rb 0.003 and 0.0006 (FM-190) or 0.00015 and 0.0003 (1, 4)
# Method: Solutions of the plasmid pUC19 linearized by EcoRI (50 μg/mL) were incubated with the Pt complex under irradiation conditions (for 1 h and subsequently incubated in the dark for an additional 23 h) at various ri values in NaClO4 (10 mM) at 310 K. Autoradiograms were recorded of denaturing 1% agarose gel of linearized DNA, which was 3′-end-labeled and nonmodified or modified by FM-190, 1, and 4 photoactivated by visible light.
# Therefore, we investigated the capability of irradiated 1 and 4 to form DNA interstrand cross-links as well. Plasmid pUC19 linearized by EcoRI (50 μg mL^–1) and the Pt complex were irradiated with blue light for 1 h and subsequently incubated in the dark for an additional 23 h in NaClO4 (10 mM) at 310 K. The plasmid was modified to the extent corresponding to the rb values of 0.003 and 0.0006 (in the case of FM-190) or 0.00015 and 0.0003 (in the case of 1 and 4) and analyzed by agarose gel electrophoresis under denaturing conditions (Figure 5C). Interstrand cross-linked DNA appears as the top band (marked as ICLs), migrating on the gel more slowly than single-stranded DNA (contained in the bottom bands and marked as ss). […] It is, therefore, reasonable to envisage that the treatment of DNA by irradiated dinuclear 1 or 4 results in the formation of trans GG interstrand DNA cross-links as in the case of the treatment with mononuclear complex FM-190.
# [12] = system: negatively supercoiled pSP73KB plasmid; parameters: method as in PMID 22420335; settings: photoactivated, identical conditions; cited from earlier work
# [13] = system: parental A2780 cells; parameters: method as in PMID 20677309; settings: cited from earlier work
# [14] = A2780, irrad, 1 h irradiation (465 nm, 4.8 mW/cm^2)
# [15] = MRC5 normal cells, dark, 1 h incubation, 1 h dark, 24 h recovery
# [16] = MRC5 normal cells, irrad, 1 h incubation, 1 h irradiation (465 nm), 24 h recovery
compound,measurement,setting,value
"[NH2][Pt]([NH2])([Cl])[Cl] [CDDP, cisplatin]","% Cell Population, G1 phase",[1],32.1±0.5%
same,"% Cell Population, G2/M phase",[1],67.4±0.9%
same,"% Cell Population, S phase",[1],0.4±0.5%
same,"% Cell Population, G1 phase",[2],64.2±2.8%
same,"% Cell Population, G2/M phase",[2],22.0±0.4%
same,"% Cell Population, S phase",[2],13.8±2.4%
same,"% Cell Population, G1 phase",[3],36.3±1.2%
same,"% Cell Population, G2/M phase",[3],45.5±0.9%
same,"% Cell Population, S phase",[3],18.2±0.3%
same,IC50,"[4]; A2780, dark, 1 h dark",> 100 µM
same,IC50,[4]; [14],> 100 µM
same,IC50,"[5]; dark, 1 h dark",> 100 µM
same,IC50,"[5]; irrad, 1 h irradiation (465 nm, 4.8 mW/cm^2)",> 100 µM
same,IC50,"[6]; OE19, dark, 1 h dark",> 100 µM
same,IC50,"[6]; OE19, irrad, 1 h irradiation (465 nm, 4.8 mW/cm^2)",> 100 µM
same,IC50,[7]; [15],> 100 µM
same,IC50,[7]; [16],> 100 µM
"CN(C)CCCN1c2ccccc2Sc2ccc(Cl)cc21 [CPZ, chlorpromazine]",IC50,[8],6 ± 0.3 µM
same,IC50,[9],6 ± 0.3 µM
same,IC50,"[7]; Homo sapiens, MRC5",> 100 µM
same,IC50,"[7]; Homo sapiens, MRC5, light or radiation study",> 50 µM
"trans,trans,trans-[Pt(N3)2(OH)2(py)2] [FM-190]",platinum accumulation,[10],0.8 ± 0.2 ^b ng/10^6 cells
same,frequencies of interstrand cross-linking,[11],12.5 ± 0.5
same,PI (photocytotoxicity index),"[4]; A2780, dark vs irradiated (465 nm)",>14.0
same,IC50,"[4]; A2780, dark, 1 h dark",> 100 µM
same,IC50,[4]; [14],7.1 ± 0.4 µM
same,DNA unwinding angle,[12],28 ± 4 °
same,toxicity to parental A2780 compared with A2780cis,[13]; irradiation with UVA (365 nm),10 times
same,IC50,"[13]; parental A2780, irradiation with UVA (365 nm)",1.4 µM
same,IC50,[7]; [15],> 100 µM
same,IC50,[7]; [16],> 100 µM
